Measured values from article PMC3914206.

Legend:
panel of 442 kinases [1] = target: T1, panel of 442 kinases (Homo sapiens, UniProt O94768); type: binding; settings: Compound Concentration 10 µM
T1 construct: purchased KINOMEscan
T1 sequence (O94768 1-372): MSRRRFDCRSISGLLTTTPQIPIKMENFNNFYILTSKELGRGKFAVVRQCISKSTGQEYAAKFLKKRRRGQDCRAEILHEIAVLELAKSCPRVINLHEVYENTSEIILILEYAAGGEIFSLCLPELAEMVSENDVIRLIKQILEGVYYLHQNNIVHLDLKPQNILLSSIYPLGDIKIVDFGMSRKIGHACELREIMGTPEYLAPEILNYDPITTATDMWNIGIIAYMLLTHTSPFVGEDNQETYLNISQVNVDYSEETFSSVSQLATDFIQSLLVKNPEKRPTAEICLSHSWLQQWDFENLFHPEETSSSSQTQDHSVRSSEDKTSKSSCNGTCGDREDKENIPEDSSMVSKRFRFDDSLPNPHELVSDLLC
Text: (§1) We assessed the selectivity of members of this scaffold using the KINOMEscan methodology across a near comprehensive panel of 442 kinases [[18,27]].

panel of 442 kinases [2] = target: T2, panel of 442 kinases (Homo sapiens, UniProt Q02156); type: binding; settings: Compound Concentration 10 µM
T2 construct: purchased KINOMEscan
T2 sequence (Q02156 1-737): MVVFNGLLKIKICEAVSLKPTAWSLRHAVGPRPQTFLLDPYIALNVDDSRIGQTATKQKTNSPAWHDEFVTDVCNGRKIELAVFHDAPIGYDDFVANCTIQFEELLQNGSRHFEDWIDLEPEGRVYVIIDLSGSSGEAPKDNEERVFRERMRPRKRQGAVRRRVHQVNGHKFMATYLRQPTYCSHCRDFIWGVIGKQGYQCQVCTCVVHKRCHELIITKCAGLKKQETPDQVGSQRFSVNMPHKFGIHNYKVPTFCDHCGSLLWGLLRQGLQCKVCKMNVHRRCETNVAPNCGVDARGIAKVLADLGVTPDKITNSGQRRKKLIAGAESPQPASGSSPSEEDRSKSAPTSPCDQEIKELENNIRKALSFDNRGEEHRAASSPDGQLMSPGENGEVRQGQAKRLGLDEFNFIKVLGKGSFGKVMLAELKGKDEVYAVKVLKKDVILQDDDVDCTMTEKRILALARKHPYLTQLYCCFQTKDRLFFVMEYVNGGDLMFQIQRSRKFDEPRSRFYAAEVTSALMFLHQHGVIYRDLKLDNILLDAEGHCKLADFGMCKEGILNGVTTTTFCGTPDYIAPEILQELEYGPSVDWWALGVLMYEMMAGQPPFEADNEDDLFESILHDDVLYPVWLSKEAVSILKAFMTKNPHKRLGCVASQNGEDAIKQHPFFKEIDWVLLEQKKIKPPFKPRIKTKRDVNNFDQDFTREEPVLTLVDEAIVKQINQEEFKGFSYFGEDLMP
Text: as §1

Compound	KINOMEscan: DRAK2 (panel of 442 kinases [1])	KINOMEscan: PRKCE (panel of 442 kinases [2])
COc1cc(C(=O)N2CCC(N3CCN(C)CC3)CC2)ccc1Nc1ncc2c(n1)N(C)c1ccccc1C(=O)N2C [15 (LRRK2-IN-1)]	93	100
CCOc1cc(C(=O)N2CCC(N3CCN(C)CC3)CC2)ccc1Nc1ncc2c(n1)N(C1CCCC1)c1ccccc1C(=O)N2C [Compound 26]	100	98
COc1cc(C(=O)N2CCC(N3CCN(C)CC3)CC2)ccc1Nc1ncc2c(n1)N1CCc3cccc(c31)C(=O)N2C [Compound 24]		72
COc1cc(C(=O)N2CCC(N3CCN(C)CC3)CC2)ccc1Nc1ncc2c(n1)N(C1CCCC1)c1ccccc1C(=O)N2C [Compound 25, 11-cyclopentyl-2-((2-methoxy-4-(4-(4-methylpiperazin-1-yl)piperidine-1-carbonyl)phenyl)amino)-5-methyl-5H-benzo[e]pyrimido[5,4-b][1,4]diazepin-6(11H)-one]	100	79
